Drawing on ChEMBL document CHEMBL2150874, “Novel and selective inhibitors of histone deacetylase: patent highlight” (ACS Med Chem Lett, 2012), this text covers Activity and IC50 for ten molecules.

The subject of one assay is PC-12. Nature of the assay: Neuroprotective activity in rat PC12 cells at 1 uM by lactate dehydrogenase assay. Type of assay: functional.
Assay [1] addresses T1, Protein deacetylase HDAC6 (Homo sapiens, UniProt Q9UBN7).
T1 sequence (Q9UBN7 whole entry): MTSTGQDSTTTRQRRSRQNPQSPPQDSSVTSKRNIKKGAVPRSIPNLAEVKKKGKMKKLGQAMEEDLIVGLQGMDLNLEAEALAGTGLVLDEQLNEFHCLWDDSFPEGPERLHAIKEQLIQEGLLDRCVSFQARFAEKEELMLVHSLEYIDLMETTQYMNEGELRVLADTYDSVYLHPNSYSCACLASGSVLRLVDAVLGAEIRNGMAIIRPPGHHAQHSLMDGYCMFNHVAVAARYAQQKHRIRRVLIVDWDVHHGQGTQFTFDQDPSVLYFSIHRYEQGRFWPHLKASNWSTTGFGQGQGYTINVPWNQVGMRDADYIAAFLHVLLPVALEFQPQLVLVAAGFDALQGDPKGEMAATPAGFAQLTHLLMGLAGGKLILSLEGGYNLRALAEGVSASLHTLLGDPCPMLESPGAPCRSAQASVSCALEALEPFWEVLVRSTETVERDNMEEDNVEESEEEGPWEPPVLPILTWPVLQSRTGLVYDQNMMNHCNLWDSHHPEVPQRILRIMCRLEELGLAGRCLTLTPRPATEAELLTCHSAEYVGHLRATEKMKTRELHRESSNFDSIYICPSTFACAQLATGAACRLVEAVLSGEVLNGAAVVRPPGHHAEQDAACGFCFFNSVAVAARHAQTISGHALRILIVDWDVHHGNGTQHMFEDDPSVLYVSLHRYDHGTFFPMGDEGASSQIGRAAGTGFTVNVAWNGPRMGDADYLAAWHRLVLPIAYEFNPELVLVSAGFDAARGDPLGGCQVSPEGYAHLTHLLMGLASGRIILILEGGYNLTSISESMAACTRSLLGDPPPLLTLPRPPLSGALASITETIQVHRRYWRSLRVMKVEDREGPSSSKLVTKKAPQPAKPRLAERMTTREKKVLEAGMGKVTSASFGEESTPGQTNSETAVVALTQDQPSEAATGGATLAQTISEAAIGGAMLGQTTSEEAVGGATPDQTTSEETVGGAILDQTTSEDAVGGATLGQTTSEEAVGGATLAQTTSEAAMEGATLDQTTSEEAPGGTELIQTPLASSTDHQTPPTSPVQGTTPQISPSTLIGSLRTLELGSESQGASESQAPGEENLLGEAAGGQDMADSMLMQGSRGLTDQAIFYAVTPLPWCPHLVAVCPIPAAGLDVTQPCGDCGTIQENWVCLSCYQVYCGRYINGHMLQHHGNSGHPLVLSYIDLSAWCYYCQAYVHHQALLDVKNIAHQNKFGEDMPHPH
In words: Inhibition of HDAC6.

Molecules are shown by their SMILES.

Molecule `O=C(NO)c1ccc2c(c1)CN(C(=O)/C(=C/c1ccccc1)c1ccccc1)CC2` gave an Activity in the assay with PC-12 of 36.6%. In assay [1], this molecule returned an IC50 of less than 1 nM.

On to `O=C(NO)c1ccc2c(c1)CN(C(=O)/C(=C/c1ccc(F)cc1F)c1ccc(F)cc1)CC2`, for which the Activity in the assay on PC-12 is 56%. This molecule also returned an IC50 in assay [1] of less than 1 nM.

`COc1cc(/C=C(/C(=O)N2CCc3ccc(C(=O)NO)cc3C2)c2ccc(F)cc2)ccc1F` registered an Activity in the assay on PC-12 of 67.2%. Besides, the IC50 in assay [1] is less than 1 nM.

In turn, `COc1ccc(/C=C(/C(=O)N2CCc3ccc(C(=O)NO)cc3C2)c2ccccc2F)cc1OC` gave an Activity in the assay with PC-12 of 100%. The 50% inhibitory concentration (IC50) in assay [1] is less than 1 nM.

For the molecule `O=C(NO)c1ccc2c(c1)CN(C(=O)/C(=C/c1ccccc1)c1cccc(Cl)c1)CC2`, the Activity with PC-12 is recorded as 77.8%. This molecule also came in with an IC50 in assay [1] of less than 1 nM.

In the assay with PC-12, `Cc1ccc(/C(=C\c2ccccc2)C(=O)N2CCc3ccc(C(=O)NO)cc3C2)cc1` yielded an Activity of 68.7%. The IC50 in assay [1] was less than 1 nM.

Regarding `O=C(NO)c1ccc2c(c1)CN(C(=O)/C(=C/c1cccs1)c1ccc(F)cc1)CC2`, in the assay with PC-12, the Activity is 71.8%. In addition, the IC50 in assay [1] is less than 1 nM.

On to `COc1ccc(/C=C(/C(=O)N2CCc3ccc(C(=O)NO)cc3C2)c2ccc(F)cc2)c(OC)c1`, for which the Activity in the assay on PC-12 came to 38%. In assay [1], the half-maximal inhibitory concentration (IC50) is less than 1 nM.

Take `COc1ccc(/C=C(/C(=O)N2CCc3ccc(C(=O)NO)cc3C2)c2ccccc2)cc1`: in the assay on PC-12, the Activity was found to be 55%. Also, the IC50 in assay [1] was less than 1 nM.

Regarding `Cc1ccc(/C(=C\c2ccc(F)cc2)C(=O)N2CCc3ccc(C(=O)NO)cc3C2)cc1`, the Activity in the assay on PC-12 is listed as 100%. Also, the IC50 in assay [1] is less than 1 nM.
